# Source: patent US8486991B2, “Enantiomerically pure phosphoindoles as HIV inhibitors” (Idenix Pharmaceuticals, Inc., priority 2006, dated 2013)
# Values joined by “and” are separate entries in the source; they are usually repeats but may differ in a detail not shown here. Identical values can stand only once. Like-named read-outs stand apart in the source and are kept apart here.
# Legend:
# [1] = Cellular cytotoxicity, 4 days, six HIV-1 host cell lines (ranges); type: cell-based; settings: human, read-out: Mean CC50 Range
# Method: (§7) Cell viability was measured by standard MTT or MTS staining.
# Following drug exposure for 4 days, cell viability was measured by MTS staining and CC50 values were determined. Drug concentrations ranged from 0.005 μM to 100 μM.
# [2] = tested on: HIV-1 BH10 K103N mutant virus; assay: microbe, parasite or virus in culture; type: cell-based; settings: for Fold Change, K103N: Table 9, CPE
# Method: (§1) The activity of the compounds was also assessed with the same virus and cell type using a different assay readout based on cytopathic effect (CPE).
# (§2) MT-4 cells (Source: NIH Catalog #120) were seeded onto 96-well cell culture plates (1×10^4 cells per well in 50 μL).
# (§3) The final DMSO concentration in the assay was 0.5% in 120 μL. Cell cultures were then incubated at 37° C./5% CO2 for 4 days. Then, Cell Titer 96 AQueous One Solution Cell Proliferation Assay (Promega) was used to measure cell viability. Briefly, the One Solution Reagent was added directly to culture wells (20 μL/well), incubated for 5 hours, and the absorbance was recorded at 492 nm using the Sunrise Tecan Spectrophotometer.
# (§4) The EC50 values were determined from the percent inhibition versus concentration data using a sigmoidal non-linear regression analysis based on four parameters with Tecan Magellan software.
# [3] = biological target: human DNA polymerase beta (Homo sapiens, UniProt P06746); assay: Human cellular DNA polymerase beta assay; type: biochemical
# Text: HIV RT, like other viral polymerase, shares limited structural homology with the cellular DNA polymerases responsible for normal nuclear and mitochondrial DNA synthesis and repair. This raises the formal possibility that inhibitors of HIV RT might inhibit cellular polymerases, resulting in cellular toxicity. In particular, inhibition of polymerase gamma has the potential to result in mitochondrial toxicity. The ability of Compound I and Compound III to inhibit cellular DNA polymerases was assessed using standard in vitro assays (Table 5).
# [4] = tested on: HIV-1 W.T. strains BH10, NL4-3 and IIIB; assay: Drug susceptibility assays, 3 W.T. strains in 5 human cell lines (ranges); type: cell-based
# Text: (§5) The virus and host-cell dependency of Compound I, Compound III and control drugs was further examined in drug susceptibility assays performed across 3 different subtype B wild-type HIV-1 strains and 5 different cell lines.
# HIV-1 IIIB in U937 cells = assay: Drug susceptibility assay, IIIB in U937 cells; type: cell-based; settings: Human immunodeficiency virus 1, IIIB
# Text: as §5
# [5] = tested on: 9 different HIV-1 subtypes (A, B, C, D, F1, G, H, AE, AG), 18 viruses; assay: PhenoSense testing, HIV-1 subtype panel; type: cell-based; settings: Human immunodeficiency virus 1, read-out: potency range, panel of 9 different HIV-1 subtypes
# Text: The activities of the test and control compounds were next tested against a subtype panel which covers all major HIV-1 subtypes or clades (A, B, C, D, F1, G, H, AE and AG). This panel was part of a 64 virus panel selected from the large library of clinical isolates Monogram BioSciences (formerly ViroLogics). Each of the subtypes in the panel was represented by 2 distinct viruses which share many sequence similarities, but also some key differences and therefore could respond differently to one or more of the drugs included in this study.
# [6] = tested on: HIV-1 BH10 wild-type virus; assay: CPE / cell protection assay, MT-4 cells, BH10 wild-type; type: cell-based; settings: for EC50: Human immunodeficiency virus 1, MT4; for Fold Change, W.T.: Table 9, CPE
# Method: as §1, §2, §3, §4
# [7] = Longer term cytotoxicity, 12 days, MTS, HuH7; settings: human
# Method: as §7
# (§8) Cells were repeatedly treated with a range of drug concentrations (0.005 to 100 μM) for 9 (HeLa) or 12 days (HuH7, HepG2).
# [8] = biological target: site-directed mutant HIV-1 RT enzymes; assay: HIV-1 RT enzyme assay, whole panel (ranges); type: biochemical; settings: for IC50: Table 3, range over W.T. and 7 mutant enzymes; for Mean Activity Range (fold-resistance): Table 4, range of fold changes over the panel
# Text: In Vitro Antiviral Activity Against Additional Mutant HIV RT Enzymes
# The studies are summarized in the text that follows.
# [9] = tested on: HIV-1 IIIB in MOLT-4 cells; assay: Drug susceptibility assay, IIIB in MOLT-4 cells; type: cell-based; settings: Human immunodeficiency virus 1, IIIB
# Text: as §5
# HIV-1 W.T. (NL4-3) virus = assay: PBMC cell assay, W.T. (NL4-3); type: cell-based; settings: Human immunodeficiency virus 1, NL43, PBMC
# HIV-1 W.T. (BH10) virus = assay: PBMC cell assay, W.T. (BH10); type: cell-based; settings: Human immunodeficiency virus 1, PBMC
# [10] = tested on: HIV-1 BH10 wild-type virus; assay: microbe, parasite or virus in culture; type: cell-based; settings: for Fold Change, W.T.: Table 7, EC50 mutant / EC50 wild-type
# [11] = tested on: HIV-1 IIIB K103R/V179D/P225H triple mutant virus; assay: microbe, parasite or virus in culture; type: cell-based; settings: for EC50: Human immunodeficiency virus 1, IIIB; for Fold Change, K103R/V179D/P225H: Table 16, IIIB
# Method: (§6) The test articles were next profiled against a panel of HIV-1 IIIB laboratory cultivated mutants as summarized in the text below. Antiviral efficacy was determined via a CPE assay with an MTS read-out for cell viability.
# HIV-1 IIIB w.t. virus = assay: microbe, parasite or virus in culture; type: cell-based; settings: IIIB; for EC50: Human immunodeficiency virus 1, MT4, Table 15, CPE, read-out: Average EC50 Values ± Standard Deviation, W.T.; for Fold Change, W.T.: Table 16
# Method: as §6
# [12] = Longer term cytotoxicity, 9 days, MTS, HeLa; settings: human
# Method: as §7, §8
# [13] = Human immunodeficiency virus 1, MT4, read-out: Average EC50 Values ± Standard Deviation, K103N
# [14] = Human immunodeficiency virus 1, MT4, read-out: EC50, K103N
# [15] = Cell Protection Assay tables, unit inferred, read-out: EC50, BH10
# [16] = Table 8, CPE readout, read-out: Average EC50 Values ± Standard Deviation, W.T.
# [17] = range over the three agents, read-out: mean EC50 values, WT BH10 virus, CPE assay
# [18] = read-out: Average EC50 Values ± Standard Deviation, W.T. (NL4-3)
# [19] = read-out: mean EC50, NL4-3 strain in human PBMC
# [20] = read-out: Average EC50 Values ± Standard Deviation, W.T. (BH10)
# [21] = read-out: mean EC50, BH-10 strain in human PBMC
# [22] = Human immunodeficiency virus 1, MT4, 96 h, read-out: mean EC50, wild-type BH10 virus in MT-4 cells, p24 ELISA, 4 day
# [23] = Human immunodeficiency virus 1, MT4, read-out: Average EC50 Values ± Standard Deviation, host MT-4, virus BH10, Table 17
# [24] = read-out: mean EC50, wild-type BH10 virus in MT-4 cells, p24 ELISA, 4 day
# [25] = MT4, read-out: Average EC50 Values ± Standard Deviation, K103R/V179D/P225H
# [26] = MT4, read-out: EC50, K103R/V179D/P225H triple mutant virus
Structure (SMILES),CC50 at 4 days [1] [nM],"EC50 [2, 13] [nM]","EC50 [2, 14] [nM]","Fold Change, K103N [2] [fold]","Average IC50 Values ± Standard Deviation, DNA Pol Beta ([3]; Table 5)",EC50 [5] [nM],"EC50 [6, 15] [nM]","EC50 [6, 16] [nM]","EC50 [6, 17] [nM]","Fold Change, W.T. [6] [fold]",IC50 [8] [nM],Mean Activity Range (fold-resistance) [8] [µM],EC50 (HIV-1 W.T. (NL4-3) virus; [18]) [nM],EC50 (HIV-1 W.T. (NL4-3) virus; [19]) [nM],EC50 (HIV-1 W.T. (BH10) virus; [20]) [nM],EC50 (HIV-1 W.T. (BH10) virus; [21]) [nM],"EC50 [10, 22] [nM]","EC50 [10, 23] [nM]","Fold Change, W.T. [10] [fold]","EC50 [10, 24]",further results
"CO[P@](=O)(c1cc(C)cc(/C=C/C#N)c1)c1c(C(N)=O)[nH]c2ccc(Cl)cc12 [Compound III, (2-Carbamoyl-5-chloro-1H-indol-3-yl)-[3-((E)-2-cyano-vinyl)-5-methyl-phenyl]-(R)-phosphinic acid methyl ester]",14800 to 50000,0.1 ± 0.1,0.14 ± 0.052,1.1 ± 0.3,did not reach an IC50,0.2 to 2.14,0.15 ± 0.11,0.2 ± 0.1,0.1 to 0.7,1,130 to 2990,0.6 to 13.7,1.5 ± 0.5,1.5,0.4 ± 0.1,0.4,1.2,1.2 ± 0.6,1,~1 nM and 1 nM,"IC50 ([3]; Table 5, read-out: Average IC50 Values ± Standard Deviation, DNA Pol Beta): ≥ 479000 nM; EC50 ([4]; Human immunodeficiency virus 1, Table 17; over all virus/host combinations; read-out: Mean Activity Range): 0.5 nM; EC50 ([4]; Human immunodeficiency virus 1; read-out: EC50 range, 3 HIV-1 viral strains in 5 host human cell lines): 0.5 to 1.7 nM; EC50 (HIV-1 IIIB in U937 cells; U-937, Table 17, read-out: Average EC50 Values ± Standard Deviation, host U937, virus IIIB): 0.5 ± 0.1 nM; CC50 at 12 days ([7]; HuH7 liver cells): 31500 ± 3370 nM; EC50 ([9]; MOLT-4, Table 17, read-out: Average EC50 Values ± Standard Deviation, host MOLT-4, virus IIIB): 0.6 ± 0.1 nM; EC50 [11, 25]: 25 ± 6 nM; EC50 [11, 26]: 21 to 25 nM; Fold Change, K103R/V179D/P225H [11]: 53.5±12.8 fold; Fold Change, K103R/V179D/P225H ([11]; listed as Cmpd. III): 53.5 ± 12.8 fold; EC50 (HIV-1 IIIB w.t. virus): 0.5 ± 0.1 nM; Fold Change, W.T. (HIV-1 IIIB w.t. virus): 1 fold; CC50 at 9 days ([12]; HeLa epithelial cells): 29900 ± 2090 nM"
"CO[P@](=O)(c1cc(C)cc(/C=C/C#N)c1)c1c(C(N)=O)[nH]c2ccc(Cl)c(F)c12 [Compound I, (2-Carbamoyl-5-chloro-4-fluoro-1H-indol-3-yl)-[3-((E)-2-cyano-vinyl)-5-methyl-phenyl]-(R)-phosphinic acid methyl ester]",16600 to 32900,0.3 ± 0.1,0.26 ± 0.057,1.0 ± 0.3,did not reach an IC50,0.25 to 3.2,0.28 ± 0.072,0.3 ± 0.1,0.1 to 0.7,1,160 to 4670,0.5 to 15.5,1.5 ± 0.7,1.5,0.4 ± 0.1,0.4,1,1 ± 0.4,1,1.2 nM,"IC50 ([3]; Average IC50 Values ± Standard Deviation, DNA Pol Beta, Table 5): ≥ 422000 nM; IC50 ([3]; Mean IC50 Values ± Standard Deviation, DNA Pol Beta, Table 6, N=4): 422000 ± 150000 nM; EC50 ([4]; Human immunodeficiency virus 1, read-out: EC50 range, 3 HIV-1 viral strains in 5 host human cell lines): 0.5 to 2 nM; EC50 ([4]; Human immunodeficiency virus 1, read-out: Mean Activity Range, Table 17; over all virus/host combinations): 0.5 nM; EC50 (HIV-1 IIIB in U937 cells; U-937, read-out: Average EC50 Values ± Standard Deviation, host U937, virus IIIB): 0.5 ± 0.1 nM; CC50 at 12 days [7]: 23500 ± 1610 nM; EC50 ([9]; MOLT-4, read-out: Average EC50 Values ± Standard Deviation, host MOLT-4, virus IIIB): 0.7 ± 0.1 nM; EC50 ([10]; Human immunodeficiency virus 1, MT4, read-out: EC50, BH10, Example 16 comparative tables, unit inferred, several lines per compound): 1 ± 0.5 nM; EC50 ([10]; read-out: EC50, BH10, Example 16 comparative tables, unit inferred, several lines per compound): 0.7 nM; EC50 [11, 25]: 10 ± 1.5 nM; EC50 [11, 26]: 10 nM; Fold Change, K103R/V179D/P225H [11]: 11.1±4.1 fold; Fold Change, K103R/V179D/P225H ([11]; listed as Cmpd. I): 11.1 ± 4.1 fold; EC50 (HIV-1 IIIB w.t. virus): 1 ± 0.4 nM; Fold Change, W.T. (HIV-1 IIIB w.t. virus): 1 fold; CC50 at 9 days [12]: 27900 ± 1140 nM"
